Measured values published in patent US20050036977A1, “Taste-masked resinate and preparation thereof” (priority 2003, published 2005).
Read-outs that look alike come from different tables or passages of the source.

Settings: initial risperidone 15 mg/mL, control value = solubility of risperidone
Procedure: The resin and risperidone were added to either water, citrate-phosphate buffer at pH 5.93 or a 1.7% gelatin solution (Table 1a). The initial concentration of risperidone in the slurries was 15 mg/mL. The control consisted of risperidone in each of the three aqueous media.
Each slurry was placed into centrifuge tubes, capped and mixed with a Burrell Wrist action shaker model 75 for 24 hours. After 24 hours, the slurry was centrifuged at a relative centrifugal force of 38,724 g for 18 minutes. The supernatant was collected, filtered through a 0.45 μl nylon filter and assayed for risperidone by an isocratic HPLC method. The concentration of drug present in the supernatant represented the amount of unbound or “free” risperidone.

With `Cc1nc2n(c(=O)c1CCN1CCC(c3noc4cc(F)ccc34)CC1)CCCC2` [Risperidone (Control), risperidone] the “Concentration of Risperidone in Supernatant after 24 Hours Mixing” value (“Concentration of Risperidone” below) (1.7% Gelatin) was 1062.1 µg/mL, the “Concentration of Risperidone” value (Citrate-Phosphate Buffer (pH 5.93)) was 4603.6 µg/mL and the “Concentration of Risperidone” value (Purified Water) was 85.82 µg/mL.
